The NIST ThermoML archive (doi:10.1016/j.jct.2008.01.018)
± gives the expanded uncertainty stated by the source.

Assay: mn = molality of the nth substance listed, in mol/kg
Conditions: 101 kPa, Liquid; for molar conductivity: Alternating current cell with electrodes; for speed of sound: Sing-around technique in a fixed-path interferometer

O=P([O-])(O)O.[Na+] [sodium dihydrogen phosphate] + O
Conditions	mass density [kg/m3]	molar conductivity [S·m2/mol]	speed of sound [m/s]
293.15 K, m1 = 0.5812	1047.85 ± 0.22	–	–
293.15 K, m1 = 0.6658	1054.7 ± 0.23	–	–
293.15 K, m1 = 0.7462	1061.08 ± 0.24	–	–
293.15 K, m1 = 0.9163	1074.46 ± 0.26	–	–
293.15 K, m1 = 1.093	1088.3 ± 0.28	–	–
293.15 K, m1 = 1.262	1100.87 ± 0.3	–	–
293.15 K, m1 = 1.451	1114.43 ± 0.32	–	–
293.15 K, m1 = 1.758	1135.93 ± 0.35	–	–
293.15 K, m1 = 2.041	1155.22 ± 0.38	–	–
293.15 K, m1 = 2.374	1177.26 ± 0.42	–	–
293.15 K, m1 = 2.747	1200.86 ± 0.45	–	–
293.15 K, m1 = 3.115	1222.16 ± 0.49	–	–
293.15 K, m1 = 3.512	1245.55 ± 0.53	–	–
298.15 K, m1 = 0.0207	–	0.00762 ± 0.00015	–
298.15 K, m1 = 0.0343	1000.13 ± 0.16	–	1500.2 ± 0.74
298.15 K, m1 = 0.0415	–	0.00723 ± 0.00015	–
298.15 K, m1 = 0.0484	1001.36 ± 0.15	–	1501.7 ± 0.74
298.15 K, m1 = 0.0697	–	0.00683 ± 0.00014	–
298.15 K, m1 = 0.1051	–	0.00655 ± 0.00013	–
298.15 K, m1 = 0.1397	–	0.00634 ± 0.00013	–
298.15 K, m1 = 0.1399	1009.35 ± 0.17	–	1510.6 ± 0.75
298.15 K, m1 = 0.167	1011.69 ± 0.17	–	1513.2 ± 0.75
298.15 K, m1 = 0.1901	–	0.0061 ± 0.00012	–
298.15 K, m1 = 0.1967	1014.27 ± 0.17	–	1516.2 ± 0.75
298.15 K, m1 = 0.2231	1016.57 ± 0.17	–	1518.7 ± 0.75
298.15 K, m1 = 0.2357	–	0.0059 ± 0.00012	–
298.15 K, m1 = 0.2506	1018.89 ± 0.18	–	1521.3 ± 0.75
298.15 K, m1 = 0.2947	–	0.00572 ± 0.00011	–
298.15 K, m1 = 0.3229	1025.07 ± 0.19	–	1528.2 ± 0.76
298.15 K, m1 = 0.3516	–	0.00553 ± 0.00011	–
298.15 K, m1 = 0.3586	1028.07 ± 0.19	–	1531.5 ± 0.76
298.15 K, m1 = 0.433	–	0.00533 ± 0.00011	–
298.15 K, m1 = 0.4346	1034.3 ± 0.2	–	1538.3 ± 0.76
298.15 K, m1 = 0.5108	1040.52 ± 0.21	–	1545 ± 0.76
298.15 K, m1 = 0.5113	–	0.00517 ± 0.0001	–
298.15 K, m1 = 0.5812	1046.29 ± 0.22	–	1551.3 ± 0.77
298.15 K, m1 = 0.5842	–	0.00496 ± 9.9e-05	–
298.15 K, m1 = 0.653	–	0.00484 ± 9.7e-05	–
298.15 K, m1 = 0.6658	1053.09 ± 0.23	–	1558.7 ± 0.77
298.15 K, m1 = 0.6999	–	0.00475 ± 9.5e-05	–
298.15 K, m1 = 0.7462	1059.42 ± 0.23	–	1565.5 ± 0.77
298.15 K, m1 = 0.7919	–	0.00457 ± 9.1e-05	–
298.15 K, m1 = 0.9163	1072.73 ± 0.25	–	1579.9 ± 0.78
298.15 K, m1 = 0.9206	–	0.00436 ± 8.7e-05	–
298.15 K, m1 = 1.093	1086.48 ± 0.28	–	1594.8 ± 0.79
298.15 K, m1 = 1.175	–	0.00398 ± 8e-05	–
298.15 K, m1 = 1.18	–	0.00398 ± 8e-05	–
298.15 K, m1 = 1.262	1098.98 ± 0.29	–	1608.4 ± 0.79
298.15 K, m1 = 1.447	–	0.00367 ± 7.3e-05	–
298.15 K, m1 = 1.451	1112.46 ± 0.31	–	1623.1 ± 0.8
298.15 K, m1 = 1.758	1133.86 ± 0.35	–	1646.4 ± 0.81
298.15 K, m1 = 1.794	–	0.00329 ± 6.6e-05	–
298.15 K, m1 = 2.041	1153.06 ± 0.38	–	1667.7 ± 0.82
298.15 K, m1 = 2.079	–	0.00303 ± 6.1e-05	–
298.15 K, m1 = 2.374	1175 ± 0.41	–	1692.3 ± 0.84
298.15 K, m1 = 2.396	–	0.00276 ± 5.5e-05	–
298.15 K, m1 = 2.398	–	0.00278 ± 5.6e-05	–
298.15 K, m1 = 2.747	1198.51 ± 0.45	–	1718.9 ± 0.85
298.15 K, m1 = 3.115	1219.74 ± 0.48	–	1743.2 ± 0.87
298.15 K, m1 = 3.512	1243.05 ± 0.52	–	1770.5 ± 0.89
303.15 K, m1 = 0.0343	998.703 ± 0.15	–	1512.4 ± 0.75
303.15 K, m1 = 0.0484	999.924 ± 0.15	–	1513.9 ± 0.75
303.15 K, m1 = 0.1399	1007.86 ± 0.16	–	1522.5 ± 0.75
303.15 K, m1 = 0.167	1010.18 ± 0.17	–	1525.1 ± 0.75
303.15 K, m1 = 0.1967	1012.74 ± 0.17	–	1527.9 ± 0.75
303.15 K, m1 = 0.2231	1015.02 ± 0.17	–	1530.4 ± 0.76
303.15 K, m1 = 0.2506	1017.33 ± 0.17	–	1532.9 ± 0.76
303.15 K, m1 = 0.3229	1023.47 ± 0.18	–	1539.5 ± 0.76
303.15 K, m1 = 0.3586	1026.45 ± 0.19	–	1542.6 ± 0.76
303.15 K, m1 = 0.4346	1032.64 ± 0.2	–	1549.3 ± 0.77
303.15 K, m1 = 0.5108	1038.82 ± 0.2	–	1555.8 ± 0.77
303.15 K, m1 = 0.5812	1044.55 ± 0.21	–	1561.8 ± 0.77
303.15 K, m1 = 0.6658	1051.31 ± 0.22	–	1568.9 ± 0.77
303.15 K, m1 = 0.7462	1057.61 ± 0.23	–	1575.5 ± 0.78
303.15 K, m1 = 0.9163	1070.83 ± 0.25	–	1589.4 ± 0.78
303.15 K, m1 = 1.093	1084.51 ± 0.27	–	1603.7 ± 0.79
303.15 K, m1 = 1.262	1096.94 ± 0.29	–	1616.8 ± 0.8
303.15 K, m1 = 1.451	1110.36 ± 0.31	–	1631 ± 0.8
303.15 K, m1 = 1.758	1131.66 ± 0.34	–	1653.4 ± 0.82
303.15 K, m1 = 2.041	1150.78 ± 0.37	–	1673.9 ± 0.83
303.15 K, m1 = 2.374	1172.65 ± 0.41	–	1697.5 ± 0.84
303.15 K, m1 = 2.747	1196.07 ± 0.45	–	1723.2 ± 0.85
303.15 K, m1 = 3.115	1217.23 ± 0.48	–	1746.5 ± 0.87
303.15 K, m1 = 3.512	1240.48 ± 0.52	–	1772.8 ± 0.89
